Data as given in US10513694B2, “Thienopyrrole compounds and uses thereof” (PROMEGA CORPORATION, priority 2015, dated 2019).
“Also recorded” adds a separate entry of the source.

Key:
[1] = test system: Nluc-HALOTAG labeled with NANOBRET 618 ligand; assay: Inhibition of extracellular BRET; format: cell-based; conditions: HEK293 Nluc-HDAC6; 10 ng/mL extracellular Nluc-HALOTAG/NANOBRET 618; 2 hrs
Experimental: HEK293 were transiently transfected with an Nluc-HDAC6 fusion protein to orient Nluc-HDAC6 inside the cell. 24 hrs post-transfection, cells were treated 10 ng/mL purified Nluc-HALOTAG labeled with NANOBRET 618 ligand to simulate spurious extracellular BRET. Cells were then exposed to a compound response curve of the thienopyrrole compounds, JRW-0013, JRW-0051, JRW-0147, and JRW-0187, for 2 hrs. 10 μM furimazine was then added, and BRET ratio 610/450 nm was measured.

[2] = molecular target: T1, purified Nluc (extracellular); Nluc-HALOTAG fusion protein (intracellular) (Oplophorus gracilirostris, UniProt Q9GV45, A31E/A60N/A81I/F95D/I117V/K70R/L54V/L99Q/M102K/N193R/P142E/Q151K/Q38R/Q45L/V71I/Y165I); assay: Inhibition of extracellular luciferase activity and enhancement of intracellular BRET; format: cell-based; conditions: HEK293 Nluc-HALOTAG + NANOBRET 618; 10 ng/mL extracellular purified Nluc; 2 hrs
T1 construct: expressed in transfected cells; host or cells: HEK293 (Nluc-HaloTag); purified Nluc added from outside
T1 sequence (Q9GV45 28-196 with tags or gaps with the stated changes limits assumed): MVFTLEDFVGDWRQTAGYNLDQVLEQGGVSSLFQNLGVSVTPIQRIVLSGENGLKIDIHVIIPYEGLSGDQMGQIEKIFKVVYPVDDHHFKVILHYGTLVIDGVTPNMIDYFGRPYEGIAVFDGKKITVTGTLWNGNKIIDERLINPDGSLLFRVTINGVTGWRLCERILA
Experimental: HEK293 were transiently transfected with Nluc-HALOTAG fusion protein to orient Nluc-HALOTAG inside the cell. 24 hrs post-transfection, cells were labeled with NANOBRET 618 ligand to simulate specific intracellular BRET. Cells were then treated 10 ng/mL purified Nluc to simulate spurious extracellular luminescence. Cells were exposed to a compound response curve of the thienopyrrole compounds, JRW-0013, JRW-0051, JRW-0147, and JRW-0187, for 2 hrs. 10 μM furimazine was added, and the BRET ratio 610/450 nm was measured.

[3] = test system: Beta-2 Adrenergic Receptor-Nluc (B2AR-Nluc) fusion protein; assay: Cell permeability, B2AR-Nluc in HEK293 or HeLa cells -/+ digitonin; format: cell-based
Experimental: HEK293 or HeLa cells were transiently transfected with Beta-2 Adrenergic Receptor-Nluc (B2AR-Nluc) fusion protein to anchor and orient Nluc cytosolically. 24 hrs post-transfection, cells were treated with −/+50 μg/mL digitonin to emulate a live and lytic scenario, respectively. Then, intact cells and permeabilized cells were exposed to a compound response curve of thienopyrrole compound up to 2 hrs. 10 μM furimazine (Promega Corp.) was added, and luminescence was measured. If a thienopyrrole compound (inhibitor) was permeable, the dose-response curves for both live and permeabilized cells overlapped. However, if a thienopyrrole compound was impermeable, the EC50 was right-shifted in the live cells relative to the permeabilized cells.

Nluc luciferase = Nluc luciferase (Oplophorus gracilirostris, UniProt Q9GV45, A31E/A60N/A81I/F95D/I117V/K70R/L54V/L99Q/M102K/N193R/P142E/Q151K/Q38R/Q45L/V71I/Y165I); assay: Inhibition of purified Nluc, dose and time dependence; format: biochemical; conditions: pro-substrate PBI-4442, DTT, TERGITOL, RT, various time points
Nluc luciferase, sequence (Q9GV45 28-196 with tags or gaps with the stated changes limits assumed): as above
Experimental: A solution of purified Nluc and an Nluc pro-substrate (PBI-4442, which is described in US 2013/0130289), which is converted to an Nluc substrate upon reduction with DTT, were prepared in PBS buffer, pH 7.5. A 40 mM solution of DTT in PBS, pH 7.5 containing 1% TERGITOL was also prepared. Titrations of the thienopyrrole compounds JRW-0004, WZ141-88, WZ141-86, WZ141-74, WZ141-84, WZ141-89, WZ141-90, and WZ141-91 in the buffer containing DTT and TERGITOL were then prepared. An equal volume of the Nluc/pro-substrate solution was added to the thienopyrrole compound titrations in wells of an assay plate. The reactions were incubated at RT, and luminescence was measured at various time points on the Tecan M100 Pro plate reader (integration time 200 ms). IC50 values were determined using GraphPad Prism 6.03.

NANOLUC® enzyme = NANOLUC® enzyme (Oplophorus gracilirostris, UniProt Q9GV45, A31E/A60N/A81I/F95D/I117V/K70R/L54V/L99Q/M102K/N193R/P142E/Q151K/Q38R/Q45L/V71I/Y165I); assay: Inhibitor IC50 determination (NANOLUC enzyme, furimazine); format: biochemical; conditions: IC50 (uM), 0.4 ng/ml NANOLUC enzyme, final furimazine 10 uM (at Km)
NANOLUC® enzyme, sequence (Q9GV45 28-196 with tags or gaps with the stated changes limits assumed): as above

Nluc enzyme = assay: Multiplex RealTime-Glo / Caspase-Glo 3/7 in MCF7 cells; format: cell-based
Experimental: (§1) A) In a Corning 3570 assay plate, MCF7 cells were plated at 1,000 cells/well in 20 μL of cell culture media (EMEM supplemented with 0.01 mg/mL human recombinant insulin and 10% fetal bovine serum) and incubated in overnight. 10 μL of 4× REALTIME-GLO™ MT Cell Viability reagents (Promega Corporation) in media or 10 μL media only was added to the cells. 10 μL of 40 μM staurosporine in media or 10 μL media only (control) was added to the cells. The cells were incubated, and caspase activation monitored at 5.5 hrs post-reagent addition. To monitor caspase activation, 40 μL CASPASE-GLO® 3/7 Assay Reagent (Promega Corporation), either on its own (Caspase) or with 200 μM of JRW-0004, JRW-0013, or JRW-0042, was added. Reactions were incubated at RT, and luminescence was measured at 1 hr 10 min post-reagent addition on Tecan M1000 Pro plate reader.
(§2) When comparing the signal generated from the CASPASE-GLO® reagent in media only versus the signal generated in media containing REALTIME-GLO™ reagent, the signal is higher in the multiplex reaction.

[4] = test system: firefly luciferase, e.g., ULTRAGLO® luciferase; assay: Specificity of inhibition: firefly luciferase activity; format: biochemical; conditions: 1 μM luciferin in Luciferase Detection Reagent; RT 2 hrs
Experimental: The following example describes the specificity of disclosed thienopyrrole compounds, JRW-0004, JRW-0013, JRW-0006, JRW-0042, JRW-0138, and JRW-0147, to inhibit Nluc luciferase activity versus firefly luciferase activity, e.g., ULTRAGLO® luciferase. In a Corning 3570 assay plate, a solution containing 1 μM luciferin in Luciferase Detection Reagent (Promega Corporation V865/859) was added to the assay wells. An equal volume of titrations the thienopyrrole compounds, JRW-0004, JRW-0013, JRW-0006, JRW-0042, JRW-0138, and JRW-0147 were then added to the wells. The reactions were incubated at RT for 2 hrs, and luminescence was measured on Tecan M1000 Pro plate reader.

Nluc = Nluc (Oplophorus gracilirostris, UniProt Q9GV45, A31E/A60N/A81I/F95D/I117V/K70R/L54V/L99Q/M102K/N193R/P142E/Q151K/Q38R/Q45L/V71I/Y165I); assay: Multiplex RealTime-Glo / Caspase-Glo 3/7 in MCF7 cells; format: cell-based; set-up: purchased Promega Corporation
Nluc, sequence (Q9GV45 28-196 with tags or gaps with the stated changes limits assumed): as above
Experimental: as §1, §2

purified Nluc enzyme = molecular target: T2, purified Nluc enzyme (Oplophorus gracilirostris, UniProt Q9GV45, A31E/A60N/A81I/F95D/I117V/K70R/L54V/L99Q/M102K/N193R/P142E/Q151K/Q38R/Q45L/V71I/Y165I); format: biochemical; conditions: titration up to 100 μM final; RT 2 hrs; pro-substrate PBI-4442 + DTT
T2 construct: purchased Promega Corporation
T2 sequence (Q9GV45 28-196 with tags or gaps with the stated changes limits assumed): as above
Experimental: In a Corning 3570 assay plate, purified Nluc enzyme (Promega Corporation), 20 mM DTT, and an Nluc pro-substrate (PBI-4442, which is described in US Patent Publication No. 2013/0130289), which is converted to an Nluc substrate upon reduction with DTT, was added. Compound titrations of JRW-0004, JRW-0013, JRW-0006, JRW-0042, JRW-0138, and JRW-0147 were then made (1:2 serial dilution in PBS, 11 points plus no inhibitor control, starting at 200 μM; 100 μM final concentration in reaction). Compound titrations were added in equal volume to the wells of the assay plate. The reactions were incubated at RT for 2 hrs, and luminescence was measured on Tecan M1000 Pro plate reader. Half-maximal inhibitor (thienopyrrole compound) concentrations (IC50s) were determined using GraphPad Prism 6.03.

[5] = test system: B2AR-Nluc or Nluc-B2AR fusion protein; assay: Cell permeability with bioluminescent imaging (HeLa, B2AR-Nluc / Nluc-B2AR); format: cell-based; conditions: 30 μM compound, 10 μM furimazine
Experimental: HeLa cells were transiently transfected with Beta-2 Adrenergic Receptor-Nluc (B2AR-Nluc; C-Terminus Nluc) or Nluc-Beta-2 Adrenergic Receptor (Nluc-B2AR; N-terminus Nluc) fusion protein to anchor and orient Nluc intracellularly or extracellularly, respectively. 24 hrs post-transfection, cells were treated with −/+30 μM of a thienopyrrole compound, JRW-0147, JRW-0051, and JRW-0138. 10 μM furimazine was added, and luminescence was detected by imaging on the Olympus LV200.

[6] = 10 μM Stauro vs Control, 200 μM compound
[7] = CASPASE-GLO 3/7 reagent with 200 μM compound, 1 hr 10 min

SMILES | BRET ratio 610/450 nm across compound dose-response curve (FIGS. 12B-12E) [1] | BRET ratio 610/450 nm across compound dose-response curve (FIGS. 13B-13E) [2] | Cell permeability [3] | IC50 (NANOLUC® enzyme) [µM] | Inhibition of firefly luciferase activity (FIG. 3) [4] | Inhibition of purified Nluc enzyme (FIG. 2) (purified Nluc enzyme) | Permeability and inhibition of extracellular / intracellular Nluc by imaging (FIG. 14) [5] | also measured
CCN(C(=O)Cn1c(C(=O)N[C@H]2CC[C@H](C(=O)N3CCC(C(=O)O)CC3)CC2)cc2sccc21)c1cccc(C)c1 [JRW-0187, 1-(trans-4-(4-(2-(ethyl(m-tolyl)amino)-2-oxoethyl)-4H-thieno[3,2-b]pyrrole-5-carboxamido)cyclohexane-1-carbonyl)piperidine-4-carboxylic acid] | BRET ratio decreased | intracellular BRET ratio was enhanced | cell-impermeable |  |  |  |  | 
CCN(C(=O)Cn1c(C(=O)NC)cc2sccc21)c1cccc(C)c1 [WZ-141-84, 4-(2-(ethyl(m-tolyl)amino)-2-oxoethyl)-N-methyl-4H-thieno[3,2-b]pyrrole-5-carboxamide] |  |  |  | 5.5 |  |  |  | Inhibition of Nluc luciferase, dose and time dependence (FIGS. 4-6) (Nluc luciferase): inhibit Nluc luciferase in a dose- and time-dependent manner
CCCCNC(=O)[C@H]1CC[C@H](NC(=O)c2cc3sccc3n2CC(=O)N(CC)c2cccc(C)c2)CC1 [JRW-0042, N-(trans-4-(butylcarbamoyl)cyclohexyl)-4-(2-(ethyl(m-tolyl)amino)-2-oxoethyl)-4H-thieno[3,2-b]pyrrole-5-carboxamide] |  |  |  | 0.31 | do not inhibit firefly luciferase activity; also recorded: did not inhibit the firefly luciferase activity | capable of inhibiting purified Nluc enzyme |  | Fold Cont, Media only (Nluc enzyme; [6]): 5.81; Avg (luminescence), Media only, 10 μM Stauro (Nluc enzyme; [7]): 62280; Avg (luminescence), Media only, Control (Nluc enzyme; [7]): 10718; Fold Cont, Media containing RealTime-Glo (Nluc; [6]): 5.05; Avg (luminescence), Media containing RealTime-Glo, 10 μM Stauro (Nluc; [7]): 53956; Avg (luminescence), Media containing RealTime-Glo, Control (Nluc; [7]): 10679
CCCCCCNC(=O)[C@H]1CC[C@H](NC(=O)c2cc3sccc3n2CC(=O)N(CC)c2cccc(C)c2)CC1 [JRW-0138, 4-(2-(ethyl(m-tolyl)amino)-2-oxoethyl)-N-(trans-4-(hexylcarbamoyl)cyclohexyl)-4H-thieno[3,2-b]pyrrole-5-carboxamide] |  |  | cell-permeable | 0.13 | do not inhibit firefly luciferase activity; also recorded: did not inhibit the firefly luciferase activity | capable of inhibiting purified Nluc enzyme | cell permeable and inhibited both intracellular and extracellular Nluc | 
CCN(C(=O)Cn1c(C(=O)NC2CCCCC2)cc2sccc21)c1cccc(C)c1 [JRW-0006, N-cyclohexyl-4-(2-(ethyl(m-tolyl)amino)-2-oxoethyl)-4H-thieno[3,2-b]pyrrole-5-carboxamide] |  |  |  | 0.26 | do not inhibit firefly luciferase activity; also recorded: did not inhibit the firefly luciferase activity | capable of inhibiting purified Nluc enzyme |  | 
CCN(C(=O)Cn1c(C(=O)N[C@H]2CC[C@H](C(=O)NCCCC(=O)O)CC2)cc2sccc21)c1cccc(C)c1 [JRW-0051, 4-(trans-4-(4-(2-(ethyl(m-tolyl)amino)-2-oxoethyl)-4H-thieno[3,2-b]pyrrole-5-carboxamido)cyclohexane-1-carboxamido)butanoic acid] | BRET ratio decreased | intracellular BRET ratio was enhanced | cell-impermeable | 0.74 |  |  | impermeable and inhibited extracellular Nluc and enhanced intracellular Nluc | 
